The source of these data is patent publication US9511072B2, “Methods of modulating cell proliferation and cyst formation in polycystic kidney and liver diseases” (The Medical College of Wisconsin, Inc., priority 2006, dated 2016).

In data set [1] the test system is EGFR phosphorylation in BPK renal tissues. Kind of data set: Western blot of EGFR phosphorylation in BPK renal tissue after chronic treatment. The data set is classed as in vivo, mouse. The conditions noted are these: BPK mice, ip 10 mg/Kg/day, PN-7 to PN-20, medulla region. From the text:
The BPK model, a murine model of ARPKD, arose as a spontaneous mutation in an inbred colony of Balb/c mice and has been extensively characterized (Nauta J et al. Pediatr Nephrol 1993, 7:163-72; Nauta J et al. Pediatr Res 1995, 37:755-63; and Sweeney W E et al. Kidney Int 2003, 64:1310-9). Affected animals die at postnatal day (PN) 24 (average) with a range of PN-21 to PN-29 days. Extrarenal manifestations include biliary proliferation and ductal ectasia (BDE). Balb/c controls were utilized in all experiments. All animal experiments were conducted in accordance with policies of the NIH Guide for the Care and Use of Laboratory Animals and the Institutional Animal Care and Use Committee (IACUC) of the Medical College of Wisconsin. Western blot analysis of EGFR phosphorylation was conducted for BPK renal tissues following 13 days (PN-7 to PN-20) of treatment with vehicle (ip) (lane A of FIG. 10) or HET0016 (ip, 10 mg/Kg/day) (lane B or FIG. 10). […] The reduced phosphorylation of the EGFR directly correlates with the reduced size of the HET0016-treated cystic kidney, reduced KW/BW ratio, and improved morphology of the HET0016-treated cystic kidney observed in the immunohistochemistry study described above in Example 3.
In general terms: In western blotting, separated proteins are transferred to a membrane and probed.

The test system of data set [2] is EGF receptor (EGFR) phosphorylation in REC11 cells. Briefly: Western blot of phosphorylated EGFR in REC11 cystic cells. The data set is classed as cell-based, mouse. The conditions noted are these: 10 μM. The source says:
(§1) REC11 cystic cell line is a conditionally immortalized epithelial collecting tubule (CT) cell line derived from the cystic kidneys of the BPK mouse model of human ARPKD crossed to the ImmortoMouse. The BPK mouse as a human ARPKD model has been described in Nauta J. et al., Pediatr Nephrol 1993, 7:163-172 and Nauta J. et al., Pediatr Res 1995, 37:755-763. The procedures for immortalization, cell isolation, cell culture and the complete phenotypic characterization of this cell line have been described in detail in Sweeney W. E. et al., Am J Physiol C Physiol 2001, 281:C1695-705. All analysis and experiments were performed on REC11 cells grown for a minimum 6 days under non-permissive conditions to eliminate residual Large T. REC12 cell line is a conditionally immortalized epithelial collecting tubule (CT) cell line derived from the wild-type Balb/C littermates. The Balb/C is the strain of mice in which the BPK mutation arose (Nauta J. et al., Pediatr Nephrol 1993, 7:163-172 and Nauta J. et al., Pediatr Res 1995, 37:755-763).
(§2) REC11 cells (FIG. 2, lanes A and B) and control renal epithelial cells (REC12 cells: FIG. 2, lanes C and D) were grown for 10 days. Next, the cells were exposed to vehicle (lanes A and C) or 10 μM HET0016 (lanes B and D) and then harvested for assessment of the expression of phosphorylated EGFR by Western Blot analysis.

Data set [3] concerns cystic BPK cells. Briefly: BrdU incorporation in cystic BPK cells. It counts as cell-based, mouse. The conditions noted are these: 36 hours, vehicle 118. The method, then: To determine the level of proliferation in the cystic BPK cells, chemically dissimilar inhibitors of cytochrome P450 4A (CYP4A) and 4F (CYP4F) inhibitors, specifically HET-0016 (10 and 20 μM) and DDMS (10 μM), were incubated for 36 hours with the BPK cells. Three hours prior to the harvesting of the cells, 5-bromo-2′-deoxyuridine (BrdU) at a concentration of 30 μM was added to determine the level of cell cycle inhibition. The cells were subsequently methanol fixed and BrdU-positive cells were identified by immunohistology with biotinylated monoclonal anti-BrdU antibody (Zymed, South San Francisco, Calif.). Data were expressed as the percentage of BrdU-labeled cells per 500 counted cells.
A general note: Incorporation of labelled thymidine or its analogues reports DNA synthesis.

Data set [4] concerns PCK rats. Kind of data set: Chronic HET0016 treatment of PCK rats (KW/BW, LW/BW, morphology). The data set is classed as in vivo, rat. The method, then: PCK rats, an orthologous model of human ARPKD (PKHD1), received daily IP injections of vehicle or HET0016 at 10 mg/kg/daily, starting at postnatal day 7 (PN-7). Animals were treated daily from PN-7 to PN-55 (48 doses). Kidney and liver were harvested at PN-55.

Data set [5] deals with EGF receptor (EGFR) phosphorylation in REC12 cells. Briefly: Western blot of phosphorylated EGFR in normal REC12 cells. It counts as cell-based, mouse. The settings on record: 10 μM, REC12 normal renal epithelial cells.
Description: as §1, §2

Data set [6] has as its system Cyp4a12-expressing Balb/C cells. Briefly: Cell counting of Cyp4a12-transduced non-cystic Balb/C cells. It counts as cell-based, mouse. The conditions noted are these: 10 μM. How it is done:
(§3) For the cell counting experiments, the non-cystic Balb/C (+/+) and cystic BPK renal epithelial cells were seeded in 6-well dishes and changed into media lacking γ-IFN at 37° C. (non-permissive conditions) for at least 6 additional days prior to assessing any phenotypic analyses to ensure the loss of the T antigen (Sweeney W E et al. Am J Physiol Cell Physiol, 281:C1695-705, 2001). Cells were harvested by tryptic digestion and counted by light microscopy using a hemocytometer.
(§4) The cells in this experiment were transduced using the lentiviral vectors in the presence of γ-IFN (i.e., permissive state) and allowed to expand. Once the cells were expanded, the transduced cells were grown in the absence of γ-IFN (i.e., non-permissive state) for 10 days. The cells were harvested and counted to initiate the proliferation experiment.
There was no significant difference (P>0.05) between Balb/C cells treated with vehicle or the EGFP-transduced lentiviral vectors.

The test system of data set [7] is 20-HETE. The settings on record: cited from earlier work.
In data set [8] the test system is Balb/C mice. Kind of data set: Chronic HET-0016 treatment of non-cystic Balb/C mice. The data set is classed as in vivo, mouse. The settings on record: 10 mg/kg/day i.p.
The subject of data set [9] is cystic BPK renal epithelial cells. Briefly: Cell counting of cystic BPK renal epithelial cells. The conditions noted are these: 10 μM added daily, day 2, non-permissive conditions. It counts as cell-based, mouse. How it is done: as §3, §4
[10] abbreviates: 10 mg/kg/daily IP, PN-7 to PN-55.
Where [11] appears, read: 10 mg/kg/day IP, PN-7 to PN-55, 10 mg/kg/day.
Setting [12] is: Balb/c (+/+), post-natal day 7-20, day 21.

“Also recorded” adds a separate entry of the source.

With “N-hydroxy-N-(4-butyl-2-methylphenyl)-formamidine [HET0016]”, the “phosphorylation (activation) of EGFR in renal tissue” value in data set [1] was “reduced the phosphorylation (activation) of EGFR”. The “phosphorylation of EGFR” value in [2] is on record as “reduced the phosphorylation of EGFR”. For the same substance, in data set [3] (10 μM), the “BrdU-positive cells per 500 total cells counted” value is given as 52 BrdU(+) cells. In addition, in data set [3] (20 μM), the “BrdU-positive cells per 500 total cells counted” value was 38 BrdU(+) cells. Besides, in data set [4] (setting [10]), the BW is recorded as 93, the “KW (% BW)” value stood at 0.97 % BW and the “LW (% BW)” value amounted to 4.3 % BW. In data set [4] (10 mg/kg/daily IP, vs vehicle), the “decrease in KW/BW ratio” value was 23%, the “decrease in LW/BW ratio” value is given as 25% and the “decrease in total body weight” value came to 14%. For the same substance, in data set [4] (setting [11]), the “kidney morphology: cysts and tubular epithelial proliferation” value is “dramatic reduction in size and number of cysts and tubular epithelial proliferation; also recorded: dramatic reduction in cyst size and tubular epithelial proliferation”; the “liver morphology: biliary cysts and biliary epithelial proliferation” value was “dramatic reduction in size and number of cysts and reduced biliary epithelial proliferation; also recorded: dramatic reduction in the size and number of biliary cysts and in the proliferation of biliary epithelial cells”. For the same substance, the “phosphorylation of EGFR” value in data set [5] is “but not in normal renal epithelial cells; also recorded: lack of an effect”. Moreover, the “increased cell proliferation of Balb/C cells over-expressing Cyp4a12” value in data set [6] is given as “completely abolished the increased cell proliferation”. Also, the “number of Cyp4a12-expressing Balb/C cells” value in [6] (day 3, without inhibitor 285,792±21,892) is on record as 49,700±5,085. For the same substance, in [7], the “20-HETE levels in vivo” value is reported as “reduce 20-HETE levels in vivo”. In addition, the “kidney weight, body weight and KW/BW ratio vs vehicle” value in data set [8] (Balb/C mice) is given as “unchanged”. Besides, in data set [8] (setting [12]), the Body weight came out at 10.5 ± 1.3 g, the KW/BW amounted to 1.3 ± 0.2 % and the “Kidney Weight” value was 0.13 ± 0.02 g. Besides, the “number of cystic BPK cells” value in data set [9] is given as 40,744±4,322.
